According to PubChem BioAssay AID248 (DTP/NCI, 2004):
Values joined by “and” are separate entries in the source; they are usually repeats but may differ in a detail not shown here. Equal values may be shown once. Inconclusive results and toxic doses are left out. Cut-off read from the data, not from the text of the source: active = T/C of 150% or more; inactive = T/C below 125%.

Test system: L1210 leukemia ip in BDF1 mice, survival T/C
Test: NCI In Vivo Anticancer Drug Screen. Data for tumor model L1210 Leukemia (intraperitoneal) in B6D2F1 (BDF1) mice
Conditions: endpoint: mean survival time, higher = longer survival
Outline: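 Value reflects the ratio of survival in compound-treated mice to survival in vehicle-treated controls, with both groups carrying the same transplanted tumor.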

[1] = dose: 100.0 mg/kg/injection, schedule: Q04DX003 (ip), vehicle: saline with Tween-80
[2] = dose: 100.0 mg/kg/injection, schedule: Q04DX003 (ip), vehicle: saline
[3] = dose: 200.0 mg/kg/injection, schedule: Q04DX003 (ip), vehicle: saline
[4] = dose: 100.0 mg/kg/injection, schedule: Q04DX002 (ip), vehicle: Klucel (hydroxypropylcellulose) (HPC)
[5] = dose: 200.0 mg/kg/injection, schedule: Q04DX002 (ip), vehicle: Klucel (hydroxypropylcellulose) (HPC)
[6] = dose: 100.0 mg/kg/injection, schedule: Q01DX001 (sc), vehicle: steriod suspending solution
[7] = dose: 200.0 mg/kg/injection, schedule: Q01DX001 (sc), vehicle: steriod suspending solution
[8] = dose: 400.0 mg/kg/injection, schedule: Q01DX001 (sc), vehicle: steriod suspending solution
[9] = dose: 200.0 mg/kg/injection, schedule: Q04DX003 (ip), vehicle: saline with Tween-80
[10] = dose: 25.0 mg/kg/injection, schedule: Q01DX009 (ip), vehicle: saline

Measured: T/C

CCCCCCCCCCCCCC[N+](C)(C)Cc1cc(=O)c(O)co1
inactive: dose: 12.5 mg/kg/injection, schedule: Q01DX015 (ip), vehicle: saline 97 % of control | dose: 25.0 mg/kg/injection, schedule: Q01DX015 (ip), vehicle: saline 102 % of control | dose: 25.0 mg/kg/injection, schedule: Q04DX003 (ip), vehicle: saline with Tween-80 97 % of control | dose: 50.0 mg/kg/injection, schedule: Q01DX015 (ip), vehicle: saline 96 % of control | dose: 50.0 mg/kg/injection, schedule: Q04DX003 (ip), vehicle: saline with Tween-80 101 % of control | dose: 100.0 mg/kg/injection, schedule: Q01DX015 (ip), vehicle: saline 106 % of control | dose: 100.0 mg/kg/injection, schedule: Q04DX003 (ip), vehicle: Klucel (hydroxypropylcellulose) (HPC) 87 % of control | [1] 101 % of control

O=c1cc(CBr)c2ccccc2[nH]1
inactive: dose: 5.0 mg/kg/injection, schedule: Q01DX001 (ip), vehicle: saline 100 % of control | dose: 6.25 mg/kg/injection, schedule: Q01DX009 (ip), vehicle: saline with Tween-80 105 % of control | dose: 10.0 mg/kg/injection, schedule: Q01DX001 (ip), vehicle: saline 94 % of control | dose: 12.5 mg/kg/injection, schedule: Q01DX009 (ip), vehicle: saline with Tween-80 90 % of control | dose: 20.0 mg/kg/injection, schedule: Q01DX001 (ip), vehicle: saline 100 % of control | dose: 40.0 mg/kg/injection, schedule: Q01DX001 (ip), vehicle: saline 103 % of control | dose: 80.0 mg/kg/injection, schedule: Q01DX001 (ip), vehicle: saline 97 % of control

C1CC2OC2CC1C1CO1 (stereo not drawn)
inactive: [2] 105 % of control | [3] 109 % of control | dose: 400.0 mg/kg/injection, schedule: Q04DX003 (ip), vehicle: saline 102 % of control

Cc1cc(C)c2c(c1)CC2=O
inactive: dose: 50.0 mg/kg/injection, schedule: Q04DX002 (ip), vehicle: Klucel (hydroxypropylcellulose) (HPC) 96 % of control | [4] 112 % of control | [5] 86 % of control

O=C1CCCC2C1CCC1C3CCC(O)CC3CCC21 (stereo not drawn)
inactive: [6] 91 % of control | [7] 93 % of control | [8] 95 % of control

CC12CCC(=O)C=C1CCC1C2CCC2(C)C1CCC2(O)C#CCN(CCCl)CCCl (stereo not drawn)
inactive: [6] 96 % of control | [7] 104 % of control | [8] 98 % of control

CS(=O)(=O)n1c(CBr)nc2ccccc21
inactive: dose: 100.0 mg/kg/injection, schedule: Q04DX003 (ip), vehicle: saline sonified 103 % of control | dose: 200.0 mg/kg/injection, schedule: Q04DX003 (ip), vehicle: saline sonified 88 % of control

COC(=O)C1CCC(NC(=O)NCCCl)CC1 (stereo not drawn)
inactive: dose: 100.0 mg/kg/injection, schedule: Q01DX001 (ip), vehicle: Klucel (hydroxypropylcellulose) (HPC) 95 % of control and 103 % of control | dose: 200.0 mg/kg/injection, schedule: Q01DX001 (ip), vehicle: Klucel (hydroxypropylcellulose) (HPC) 93 % of control and 97 % of control | dose: 400.0 mg/kg/injection, schedule: Q01DX001 (ip), vehicle: Klucel (hydroxypropylcellulose) (HPC) 95 % of control

O=Cc1[nH]c(=S)[nH]c(=O)c1Cc1c(Cl)cccc1Cl
inactive: dose: 100.0 mg/kg/injection, schedule: Q01DX001 (ip), vehicle: saline with Tween-80 101 % of control | dose: 200.0 mg/kg/injection, schedule: Q01DX001 (ip), vehicle: saline with Tween-80 101 % of control | dose: 400.0 mg/kg/injection, schedule: Q01DX001 (ip), vehicle: saline with Tween-80 106 % of control

CC(=O)c1cccc(NC(=S)NC(=O)/C=C/c2ccccc2)c1
inactive: dose: 50.0 mg/kg/injection, schedule: Q01DX009 (ip), vehicle: saline with Tween-80 92 % of control | dose: 100.0 mg/kg/injection, schedule: Q01DX009 (ip), vehicle: saline with Tween-80 94 % of control | [1] 100 % of control | [9] 103 % of control

CC(=O)CC(=O)Nc1cccc(Cl)c1
inactive: dose: 15.0 mg/kg/injection, schedule: Q01DX001 (ip), vehicle: carboxymethylcellulose (CMC) 108 % of control | dose: 30.0 mg/kg/injection, schedule: Q01DX001 (ip), vehicle: carboxymethylcellulose (CMC) 108 % of control

O=C(O)CNCC(=O)O
inactive: [10] 103 % of control | dose: 50.0 mg/kg/injection, schedule: Q01DX009 (ip), vehicle: saline 90 % of control | dose: 100.0 mg/kg/injection, schedule: Q01DX009 (ip), vehicle: saline 93 % of control and 95 % of control | [1] 105 % of control | [9] 101 % of control | dose: 400.0 mg/kg/injection, schedule: Q04DX003 (ip), vehicle: saline with Tween-80 105 % of control

CSc1ncnc2c1ncn2/N=C/c1ccccc1
inactive: dose: 100.0 mg/kg/injection, schedule: Q01DX001 (ip), vehicle: carboxymethylcellulose (CMC) 96 % of control | dose: 200.0 mg/kg/injection, schedule: Q01DX001 (ip), vehicle: carboxymethylcellulose (CMC) 95 % of control | dose: 400.0 mg/kg/injection, schedule: Q01DX001 (ip), vehicle: carboxymethylcellulose (CMC) 96 % of control

CNN=C(C)C
inactive: dose: 12.5 mg/kg/injection, schedule: Q01DX001 (ip), vehicle: saline 94 % of control | dose: 12.5 mg/kg/injection, schedule: Q01DX009 (ip), vehicle: saline 105 % of control | dose: 12.5 mg/kg/injection, schedule: Q04DX003 (ip), vehicle: saline 96 % of control | dose: 25.0 mg/kg/injection, schedule: Q01DX001 (ip), vehicle: saline 94 % of control | [10] 100 % of control | dose: 25.0 mg/kg/injection, schedule: Q04DX003 (ip), vehicle: saline 98 % of control | dose: 50.0 mg/kg/injection, schedule: Q01DX001 (ip), vehicle: saline 97 % of control | dose: 50.0 mg/kg/injection, schedule: Q04DX003 (ip), vehicle: saline 98 % of control

O=S(=O)(CCCl)c1ccc(Br)cc1
inactive: [4] 101 % of control | [5] 97 % of control | dose: 400.0 mg/kg/injection, schedule: Q04DX002 (ip), vehicle: Klucel (hydroxypropylcellulose) (HPC) 101 % of control

O=C(O)c1oc(Br)cc1Br
inactive: dose: 12.5 mg/kg/injection, schedule: Q04DX003 (ip), vehicle: other 96 % of control | dose: 25.0 mg/kg/injection, schedule: Q04DX003 (ip), vehicle: other 102 % of control | dose: 50.0 mg/kg/injection, schedule: Q04DX003 (ip), vehicle: other 101 % of control

NC(=O)CN(CC(N)=O)CC(N)=O
inactive: dose: 100.0 mg/kg/injection, schedule: Q01DX001 (ip), vehicle: saline 102 % of control | dose: 200.0 mg/kg/injection, schedule: Q01DX001 (ip), vehicle: saline 98 % of control | dose: 400.0 mg/kg/injection, schedule: Q01DX001 (ip), vehicle: saline 102 % of control

CC(/C=N/N(C)C)=N\N(C)C
inactive: [2] 92 % of control | [3] 102 % of control

CCOC(=O)c1ccc(NC(=O)Nc2cccc(C(C)=O)c2)cc1
inactive: dose: 100.0 mg/kg/injection, schedule: Q01DX009 (ip), vehicle: Klucel (hydroxypropylcellulose) (HPC) 95 % of control | dose: 200.0 mg/kg/injection, schedule: Q01DX009 (ip), vehicle: Klucel (hydroxypropylcellulose) (HPC) 93 % of control | dose: 400.0 mg/kg/injection, schedule: Q01DX009 (ip), vehicle: Klucel (hydroxypropylcellulose) (HPC) 101 % of control

Cc1c2ccncc2c(C)c2c1sc1ccccc12
active: dose: 500.0 mg/kg/injection, schedule: Q01DX001 (ip), vehicle: other 187 % of control
inactive: dose: 5.0 mg/kg/injection, schedule: Q01DX009 (ip), vehicle: Klucel (hydroxypropylcellulose) (HPC) 106 % of control | dose: 10.0 mg/kg/injection, schedule: Q01DX009 (ip), vehicle: Klucel (hydroxypropylcellulose) (HPC) 117 % of control | dose: 20.0 mg/kg/injection, schedule: Q01DX009 (ip), vehicle: Klucel (hydroxypropylcellulose) (HPC) 124 % of control | dose: 20.0 mg/kg/injection, schedule: Q01DX009 (ip), vehicle: other 113 % of control | dose: 31.0 mg/kg/injection, schedule: Q01DX001 (ip), vehicle: other 105 % of control | dose: 62.0 mg/kg/injection, schedule: Q01DX001 (ip), vehicle: other 111 % of control | dose: 80.0 mg/kg/injection, schedule: Q01DX009 (ip), vehicle: other 121 % of control | dose: 125.0 mg/kg/injection, schedule: Q01DX001 (ip), vehicle: other 121 % of control | dose: 250.0 mg/kg/injection, schedule: Q01DX001 (oral), vehicle: other 112 % of control | dose: 500.0 mg/kg/injection, schedule: Q01DX001 (oral), vehicle: other 112 % of control
